# Source: US8821922B2, “Compositions and methods for polymer-caged liposomes” (Northwestern University, priority 2007, dated 2014)
# Tested on: KB epidermoid carcinoma cells
# Test: Cytotoxicity study of doxorubicin-loaded liposomes (Guava ViaCount Assay)
# Type: cell-based
# Settings: Homo sapiens, 2 h exposure, further 48 h in fresh medium, viable cells counted by Guava ViaCount
# Description: Cytotoxictity assay were conducted using the Guava ViaCount Assay system.
# Initially, acetylene-functionalized PCLs were prepared using propargyl-modified diamine cross-linkers. Azido-poly(ethylene glycol)-modified folates were then conjugated to the acetylene groups on the surface of PCLs catalyzed by Cu(I) (FIG. 9) to present folate groups on the PCL surface. The folate conjugation to doxorubicin-loaded PCLs indeed increased the drug efficacy against cancer cells as shown through an in vitro model study against KB epidermoid carcinoma cells.
# KB cells were continuously cultured in folic acid-free medium supplemented with 10% heat-inactivated fetal bovine serum at 37° C. in a humidified atmosphere containing 5% CO2. The cells were seeded into several 48-well plates at 100,000 cells per well. The plates were then returned to the incubator and the cells were allowed to grow to confluence for 24 h. The media in the wells were replaced with the pre-prepared growth medium-drug-loaded PCL mixture (200 μL of solution at the appropriate Doxorubicin concentrations). The PCL-treated cell cultures were then further incubated for 2 h in a humidified atmosphere containing 5% CO2 at 37° C., after which the growth medium—drug-loaded PCL mixture was removed by aspiration. […] The viable cells were then counted by Guava ViaCount Assay.
smiles,measurement,value
"COc1cccc2c1C(=O)c1c(O)c3c(c(O)c1C2=O)C[C@@](O)(C(=O)CO)C[C@@H]3O[C@H]1C[C@H](N)[C@H](O)[C@H](C)O1 [free DXR, doxorubicin]",IC50,0.1 µM
